Experiment [1] has as its system MCF7. The experiment can be described thus: cells. The note with it: Homo sapiens, MCF7, 168 h.
Description: Antiproliferative activity against human MCF7 cells assessed as inhibition of cell growth incubated for 7 days by CCK8 assay
A further experiment concerns T47D. The experiment can be described thus: cells. The note with it: Homo sapiens, 168 h.
Experiment [2] deals with Phosphatidylinositol 4,5-bisphosphate 3-kinase catalytic subunit gamma isoform (Homo sapiens, UniProt P48736). The experiment can be described thus: Inhibition of PI3Kgamma (unknown origin) incubated for 60 mins in presence of ATP by ADP-Glo reagent assay. In general terms: ADP-Glo turns the ADP formed in a reaction into a luminescent signal.
For experiment [3], the target named is Phosphatidylinositol 4,5-bisphosphate 3-kinase catalytic subunit beta isoform (Homo sapiens, UniProt P42338). The experiment can be described thus: Inhibition of PI3Kbeta (unknown origin) incubated for 60 mins in presence of ATP by ADP-Glo reagent assay.
Experiment [4] has as its target T1, Phosphatidylinositol 4,5-bisphosphate 3-kinase catalytic subunit delta isoform (Homo sapiens, UniProt O00329).
T1 sequence (O00329 whole entry): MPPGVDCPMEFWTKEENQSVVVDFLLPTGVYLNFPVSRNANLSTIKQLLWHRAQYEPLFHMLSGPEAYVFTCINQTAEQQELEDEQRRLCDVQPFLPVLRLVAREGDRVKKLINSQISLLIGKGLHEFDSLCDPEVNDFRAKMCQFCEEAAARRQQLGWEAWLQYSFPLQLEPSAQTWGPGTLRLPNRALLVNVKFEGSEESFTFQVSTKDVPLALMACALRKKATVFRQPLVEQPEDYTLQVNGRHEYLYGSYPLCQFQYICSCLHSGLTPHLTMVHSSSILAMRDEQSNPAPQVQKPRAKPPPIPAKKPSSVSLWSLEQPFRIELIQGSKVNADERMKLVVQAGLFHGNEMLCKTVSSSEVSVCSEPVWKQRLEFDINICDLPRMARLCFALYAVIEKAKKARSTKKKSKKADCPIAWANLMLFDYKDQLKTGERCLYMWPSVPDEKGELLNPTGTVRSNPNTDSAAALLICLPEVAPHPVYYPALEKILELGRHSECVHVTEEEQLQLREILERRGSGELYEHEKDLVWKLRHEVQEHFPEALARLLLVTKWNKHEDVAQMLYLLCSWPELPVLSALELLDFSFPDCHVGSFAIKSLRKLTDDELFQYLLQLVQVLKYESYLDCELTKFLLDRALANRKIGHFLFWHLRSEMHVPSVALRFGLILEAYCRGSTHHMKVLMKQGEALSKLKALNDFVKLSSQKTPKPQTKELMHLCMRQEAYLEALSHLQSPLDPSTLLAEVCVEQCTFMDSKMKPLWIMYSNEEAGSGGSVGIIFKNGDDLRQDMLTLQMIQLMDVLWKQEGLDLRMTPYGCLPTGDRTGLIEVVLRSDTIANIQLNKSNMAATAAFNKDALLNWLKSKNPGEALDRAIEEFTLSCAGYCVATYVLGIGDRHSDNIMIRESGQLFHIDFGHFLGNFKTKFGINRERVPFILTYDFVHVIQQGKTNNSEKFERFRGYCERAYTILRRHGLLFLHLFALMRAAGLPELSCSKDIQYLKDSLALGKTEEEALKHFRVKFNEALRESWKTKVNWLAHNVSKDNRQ
In words: Inhibition of PI3Kdelta (unknown origin) incubated for 60 mins in presence of ATP by ADP-Glo reagent assay relative to control.

Experiment [5] relates to MCF7. The experiment can be described thus: Induction of apoptosis in human MCF7 cells assessed as early apoptotic cells at 10 uM incubated for 24 hrs by Annexin V-PE/7-AAD staining based flow cytometric analysis (Rvb= 1.3 %). The class given is functional. (In general: Flow cytometry measures light scatter and fluorescence of single cells or particles in a stream.)
Experiment [6] deals with MCF7. In words: cells. The conditions noted are these: Homo sapiens, MCF7, 24 h, read-out: Activity.
The subject of experiment [7] is MCF7. In words: Induction of apoptosis in human MCF7 cells assessed as necrotic cells at […] incubated for 24 hrs by Annexin V-PE/7-AAD staining based flow cytometric analysis (Rvb= 0.4 %). The class given is functional. The note with it: dose 1.1 µM.
Experiment [8] relates to MCF7. The experiment can be described thus: cells. The conditions noted are these: Homo sapiens, MCF7, 24 h, read-out: Activity. The source holds these as a separate data set.
In experiment [9] the test system is MCF7. In words: Induction of apoptosis in human MCF7 cells assessed as necrotic cells at 10 uM incubated for 24 hrs by Annexin V-PE/7-AAD staining based flow cytometric analysis (Rvb= 0.4 %). The format is functional.
For experiment [10], the system named is MCF7. The experiment can be described thus: Induction of apoptosis in human MCF7 cells assessed as late apoptotic cells at […] incubated for 24 hrs by Annexin V-PE/7-AAD staining based flow cytometric analysis (Rvb= […]). The format is functional. The note with it: dose 1.1 µM.
Experiment [11] deals with MCF7. The experiment can be described thus: Induction of apoptosis in human MCF7 cells assessed as necrotic cells at 3.3 uM incubated for 24 hrs by Annexin V-PE/7-AAD staining based flow cytometric analysis (Rvb= 0.4 %). The format is functional.
In experiment [12] the test system is MCF7. The experiment can be described thus: Induction of apoptosis in human MCF7 cells assessed as early apoptotic cells at 3.3 uM incubated for 24 hrs by Annexin V-PE/7-AAD staining based flow cytometric analysis (Rvb= 1.3 %). The format is functional.
Experiment [13] deals with MCF7. The experiment can be described thus: Induction of apoptosis in human MCF7 cells assessed as late apoptotic cells at 10 uM incubated for 24 hrs by Annexin V-PE/7-AAD staining based flow cytometric analysis (Rvb= […]). The class given is functional.
Experiment [14] has as its system MCF7. The experiment can be described thus: cells. The conditions noted are these: Homo sapiens, MCF7, 24 h, read-out: Activity. This is another data set of the same source.
For experiment [15], the system named is MCF7. In words: Induction of apoptosis in human MCF7 cells assessed as early apoptotic cells at […] incubated for 24 hrs by Annexin V-PE/7-AAD staining based flow cytometric analysis (Rvb= 1.3 %). The format is functional. The conditions noted are these: dose 1.1 µM.
The test system of experiment [16] is MCF7. In words: Antitumor activity against human MCF7 cells xenografted in NCG mouse assessed as inhibition of tumor growth at 12.5 mg/kg,po administrated daily for 21 days relative to control. The format is functional. The conditions noted are these: MCF7, 504 h, time 21 day, read-out: TGI. For orientation: Xenograft models place foreign cells or tissue in a host animal.

Experiment [17] has as its system MCF7. In words: Induction of apoptosis in human MCF7 cells assessed as late apoptotic cells at 3.3 uM incubated for 24 hrs by Annexin V-PE/7-AAD staining based flow cytometric analysis (Rvb= […]). The format is functional.

Data on 10 compounds can be found in ChEMBL document CHEMBL5579880, “Rational Design of a Novel 6H-Benzo[c]chromen Series as Selective PI3Kα Inhibitors” (J Med Chem, 2024).

Bounds are passed on as bounds.

Phosphatidylinositol 4,5-bisphosphate 3-kinase catalytic subunit gamma isoform, sequence (P48736 whole entry, canonical isoform): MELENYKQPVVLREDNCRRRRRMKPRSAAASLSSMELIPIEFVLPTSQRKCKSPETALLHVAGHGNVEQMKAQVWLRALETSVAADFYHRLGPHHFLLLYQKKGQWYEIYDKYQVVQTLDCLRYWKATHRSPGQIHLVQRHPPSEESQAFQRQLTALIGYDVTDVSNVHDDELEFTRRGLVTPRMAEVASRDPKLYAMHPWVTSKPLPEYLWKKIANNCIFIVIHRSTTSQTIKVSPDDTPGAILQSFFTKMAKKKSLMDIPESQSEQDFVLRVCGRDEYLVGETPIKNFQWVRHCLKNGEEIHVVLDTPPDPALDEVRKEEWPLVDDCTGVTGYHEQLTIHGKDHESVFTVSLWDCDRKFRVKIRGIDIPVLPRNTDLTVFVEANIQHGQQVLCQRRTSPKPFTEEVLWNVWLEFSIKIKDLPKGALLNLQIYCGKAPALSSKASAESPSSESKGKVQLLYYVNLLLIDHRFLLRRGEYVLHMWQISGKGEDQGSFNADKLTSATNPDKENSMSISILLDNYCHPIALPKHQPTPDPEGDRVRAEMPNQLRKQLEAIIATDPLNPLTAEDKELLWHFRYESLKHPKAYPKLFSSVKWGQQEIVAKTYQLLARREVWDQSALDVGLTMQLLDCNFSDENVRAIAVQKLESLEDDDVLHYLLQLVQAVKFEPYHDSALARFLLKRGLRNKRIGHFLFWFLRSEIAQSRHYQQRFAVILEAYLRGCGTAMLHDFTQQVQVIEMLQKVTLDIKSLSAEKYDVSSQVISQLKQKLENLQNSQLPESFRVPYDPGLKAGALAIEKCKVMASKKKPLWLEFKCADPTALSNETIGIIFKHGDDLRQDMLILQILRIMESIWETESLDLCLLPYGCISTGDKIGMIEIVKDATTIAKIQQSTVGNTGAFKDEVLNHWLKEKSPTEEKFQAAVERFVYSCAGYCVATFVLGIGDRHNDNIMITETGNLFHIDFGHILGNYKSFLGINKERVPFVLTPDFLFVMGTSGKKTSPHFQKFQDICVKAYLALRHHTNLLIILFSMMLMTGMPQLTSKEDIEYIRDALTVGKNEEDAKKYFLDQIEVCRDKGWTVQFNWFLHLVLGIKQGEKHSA
Phosphatidylinositol 4,5-bisphosphate 3-kinase catalytic subunit beta isoform, sequence (P42338 whole entry, canonical isoform): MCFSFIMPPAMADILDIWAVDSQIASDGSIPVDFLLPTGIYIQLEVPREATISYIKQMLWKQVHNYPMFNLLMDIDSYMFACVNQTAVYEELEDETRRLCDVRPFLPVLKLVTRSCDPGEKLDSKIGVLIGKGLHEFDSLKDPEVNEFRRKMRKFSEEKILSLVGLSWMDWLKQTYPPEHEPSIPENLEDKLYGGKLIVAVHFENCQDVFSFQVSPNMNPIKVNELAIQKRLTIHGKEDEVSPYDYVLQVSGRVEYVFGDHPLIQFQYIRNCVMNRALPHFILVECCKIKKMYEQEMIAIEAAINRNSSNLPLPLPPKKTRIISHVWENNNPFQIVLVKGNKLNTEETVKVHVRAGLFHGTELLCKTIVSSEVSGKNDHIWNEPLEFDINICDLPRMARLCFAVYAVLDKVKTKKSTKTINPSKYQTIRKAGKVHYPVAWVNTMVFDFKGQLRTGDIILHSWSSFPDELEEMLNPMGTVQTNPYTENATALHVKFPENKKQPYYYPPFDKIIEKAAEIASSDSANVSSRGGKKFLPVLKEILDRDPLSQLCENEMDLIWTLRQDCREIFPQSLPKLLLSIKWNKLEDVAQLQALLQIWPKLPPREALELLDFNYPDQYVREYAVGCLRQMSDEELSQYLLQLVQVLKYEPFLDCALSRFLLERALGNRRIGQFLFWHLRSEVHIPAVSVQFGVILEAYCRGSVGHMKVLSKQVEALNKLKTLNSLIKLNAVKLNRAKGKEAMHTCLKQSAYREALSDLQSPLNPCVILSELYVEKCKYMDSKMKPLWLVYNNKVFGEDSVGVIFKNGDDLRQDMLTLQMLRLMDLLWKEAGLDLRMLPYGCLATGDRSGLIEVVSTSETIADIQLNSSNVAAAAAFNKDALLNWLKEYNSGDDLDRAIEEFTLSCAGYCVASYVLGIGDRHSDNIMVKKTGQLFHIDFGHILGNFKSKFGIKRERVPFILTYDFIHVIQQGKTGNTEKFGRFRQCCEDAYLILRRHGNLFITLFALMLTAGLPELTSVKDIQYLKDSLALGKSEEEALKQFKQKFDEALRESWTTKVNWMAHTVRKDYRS
Description for T47D: Antiproliferative activity against human T47D cells assessed as inhibition of cell growth incubated for 7 days by CCK8 assay

One may read the IC50 as the concentration that inhibits the measured activity by half. With `CC(C)n1nccc1-c1ccc2c(c1)-c1ccc(O[C@@H](C)C(N)=O)cc1OC2`, the half-inhibitory concentration (IC50) with MCF7 [1] was determined as 21.9 µM; with T47D it was 24.9 µM.
For the compound `C[C@H](Oc1ccc2c(c1)OCc1ccc(-c3ncnn3C)cc1-2)C(N)=O`, the half-maximal inhibitory concentration (IC50) in experiment [2] came to 5.07 µM; in experiment [3] it was 4.97 µM; in [4], 0.933 µM.
For the compound `C[C@H](Oc1ccc2c(c1)OCc1ccc(-c3ccccn3)cc1-2)C(N)=O`, the concentration for half-maximal inhibition (IC50) is 13.9 µM in the experiment on MCF7 [1] and 8.1 µM in the experiment with T47D.
On to `C[C@H](Oc1ccc2c(c1)OCc1ccc(-c3ccncn3)cc1-2)C(N)=O`, for which, in [4], the IC50 turned out to be 0.702 µM.
For `C[C@H](Oc1ccc2c(c1)OCc1ccc(-c3ccn(C)n3)cc1-2)C(N)=O`, the IC50 came out at 17.2 µM in the experiment with MCF7 [1] and 11.5 µM in the experiment with T47D.
As for `Cc1nc(NC(=O)N2CCC[C@H]2C(N)=O)sc1-c1ccnc(C(C)(C)C(F)(F)F)c1` [ALPELISIB], the half-inhibitory concentration (IC50) with MCF7 [1] is 0.6 µM; in the experiment with T47D, 0.4 µM. Further, the Activity was 2.9% in the experiment on MCF7 [5]; 10.3% with MCF7 [7]; 33.6% in the experiment on MCF7 [9]; 12.5% in the experiment with MCF7 [10]; 16.3% in the experiment with MCF7 [11]; 3.9% in the experiment with MCF7 [12]. In addition, the Activity in the experiment on MCF7 [13] is 15%; with MCF7 [15], 2.2%; in the experiment on MCF7 [17], 16.1%. The viability at 10 µM in the experiment with MCF7 [6] was determined as 48.5%. Further, the viability at […] in the experiment on MCF7 [8] came to 75%. Besides, in the experiment with MCF7 [14], the viability at 3.3 µM turned out to be 63.7%. Moreover, the inhibition in vivo at 12.5 mg/kg in the experiment on MCF7 [16] turned out to be 88%.
Regarding `C[C@H](Oc1ccc2c(c1)OCc1ccc(-c3ccncc3)cc1-2)C(N)=O`, the half-maximal inhibitory concentration (IC50) was 0.94 µM in experiment [2], 3.25 µM in [3] and 0.352 µM in experiment [4].
`C[C@H](Oc1ccc2c(c1)OCc1ccc(-c3cccnc3)cc1-2)C(N)=O`: the values for the IC50 in the experiment on MCF7 [1] and in the experiment on T47D were 14.9 µM and 16.6 µM, respectively.
`C[C@H](Oc1ccc2c(c1)OCc1ccc(-c3cc[nH]n3)cc1-2)C(N)=O`: the half-inhibitory concentration (IC50) in experiment [2] was determined as 1.29 µM; in [3], 2.67 µM; in experiment [4], 0.44 µM.
The like results for `C[C@H](Oc1ccc2c(c1)OCc1ccc(-c3ncccn3)cc1-2)C(N)=O` were, in that order, 7.09 µM, more than 10 µM and 1.16 µM.
